Tests used:
Klebsiella pneumoniae [1] = experiment: Growth inhibition of Klebsiella pneumoniae SIPI-KPN-1712 by broth microdilution method; format: organism-based; details: in vitro
Klebsiella pneumoniae [2] = experiment: Synergistic antibacterial activity against Klebsiella pneumoniae SIPI-KPN-1712 assessed as polymixin B MIC at 4 ug/ml by broth microdilution method (reference value: 32 ug/ml); format: functional
Klebsiella pneumoniae [3] = experiment: Synergistic antibacterial activity against Klebsiella pneumoniae SIPI-KPN-1712 assessed as fractional Inhibitory concentration index in presence of polymixin B at 2 ug/ml by broth microdilution method; format: functional

Compound	MIC (Klebsiella pneumoniae [2])	MIC (Klebsiella pneumoniae [1])	fractional inhibitory concentration index (FICI) (Klebsiella pneumoniae [3])
CCCOC1CCCc2nc(Nc3ccc(F)cc3)sc21 (stereo not given)	16 µg/mL	> 128 µg/mL	0.53
CCCCOC1CCCc2nc(Nc3ccc(C)cc3)sc21 (stereo not given)	32 µg/mL	> 128 µg/mL	1.03
O=C(OC1CCCc2nc(Nc3ccc(Cl)cc3)sc21)n1ccnc1 (stereo not given)	32 µg/mL	> 128 µg/mL	1.03
COC1CCCc2nc(Nc3ccc(Cl)cn3)sc21 (stereo not given)	16 µg/mL	> 128 µg/mL	0.53
CCOC1CCCc2nc(Nc3ccc4ccccc4n3)sc21 (stereo not given)	32 µg/mL	> 128 µg/mL	1.03
COc1cc(Nc2nc3c(s2)C(OC)CCC3)cc(OC)c1OC (stereo not given)	16 µg/mL	> 128 µg/mL	0.53
COC1CCCc2nc(Nc3c(F)cccc3F)sc21 (stereo not given)	32 µg/mL	> 128 µg/mL	1.03
CCOC1CCCc2nc(Nc3ccc(Cl)cn3)sc21 (stereo not given)	16 µg/mL	> 128 µg/mL	0.53
Cc1ccc(Nc2nc3c(s2)C(OC(=O)n2ccnc2)CCC3)cc1 (stereo not given)	32 µg/mL	> 128 µg/mL	1.03
CCOC1CCCc2nc(Nc3ccc(Oc4ccccc4C)cc3)sc21 (stereo not given)	32 µg/mL	> 128 µg/mL	1.03
Clc1ccc(Nc2nc3ccc(Cl)cc3s2)cc1	32 µg/mL	> 128 µg/mL	1.03
COC1CCCc2nc(Nc3ccc(C(F)(F)F)cc3Cl)sc21 (stereo not given)	4 µg/mL	> 128 µg/mL	0.16
COC1CCCc2nc(Nc3c(Cl)cccc3Cl)sc21 (stereo not given)	1 µg/mL	> 128 µg/mL	0.06
O=C(OC1CCCc2nc(Nc3ccc(F)cc3)sc21)n1ccnc1 (stereo not given)	32 µg/mL	> 128 µg/mL	1.03
COC1CCCc2nc(Nc3ccc(Cl)cc3Cl)sc21 (stereo not given)	8 µg/mL	> 128 µg/mL	0.28
O=C(OC1CCCc2nc(Nc3ccc(Cl)cn3)sc21)n1ccnc1 (stereo not given)	16 µg/mL	> 128 µg/mL	0.53
COC1CCCc2nc(Nc3ncccn3)sc21 (stereo not given)	16 µg/mL	> 128 µg/mL	0.53
COC1CCCc2nc(Nc3ccc(C#N)c(C(F)(F)F)c3)sc21 (stereo not given)	16 µg/mL	> 128 µg/mL	0.53
COC1CCCc2nc(Nc3cccc(C)c3C)sc21 (stereo not given)	32 µg/mL	> 128 µg/mL	1.03
COC1CCCc2nc(NN3CCOCC3)sc21 (stereo not given)	16 µg/mL	> 128 µg/mL	0.53
Clc1ccc(Nc2nc3ccccc3s2)cc1	32 µg/mL	> 128 µg/mL	1.03
COC1CCCc2nc(Nc3ccc(C(C)(C)C)cc3)sc21 (stereo not given)	16 µg/mL	> 128 µg/mL	0.53
CCCOC1CCCc2nc(Nc3ccc(C)cc3)sc21 (stereo not given)	16 µg/mL	> 128 µg/mL	0.53
COC1CCCc2nc(Nc3ccc(Oc4ccc(F)cc4)cc3)sc21 (stereo not given)	32 µg/mL	> 128 µg/mL	1.03
COC1CCCc2nc(Nc3nccs3)sc21 (stereo not given)	32 µg/mL	> 128 µg/mL	1.03
CCCC(CCC)OC1CCCc2nc(Nc3ccc(Cl)cc3)sc21 (stereo not given)	4 µg/mL	> 128 µg/mL	0.16
O=C(OC1CCCc2nc(Nc3ccc(C(F)(F)F)cc3)sc21)n1ccnc1 (stereo not given)	16 µg/mL	> 128 µg/mL	0.53
CCCCOC1CCCc2nc(Nc3ccc(Cl)cc3)sc21 (stereo not given)	16 µg/mL	> 128 µg/mL	0.53
COC1CCCc2nc(Nc3ccnc(Cl)c3)sc21 (stereo not given)	4 µg/mL	> 128 µg/mL	0.16
COC1CCCc2nc(Nc3ccc(Oc4ccccc4C)cc3)sc21 (stereo not given)	16 µg/mL	> 128 µg/mL	0.53

Second part, led by results:

MIC (Klebsiella pneumoniae [2])	Compound	MIC (Klebsiella pneumoniae [1])	fractional inhibitory concentration index (FICI) (Klebsiella pneumoniae [3])
2 µg/mL	CCOC1CCCc2nc(Nc3ccc(Br)cc3)sc21 (stereo not given)	> 128 µg/mL	0.09
16 µg/mL	COc1ccc(Nc2nc3c(s2)C(OC)CCC3)cc1 (stereo not given)	> 128 µg/mL	0.53
32 µg/mL	COC1CCCc2nc(Nc3ccccc3C)sc21 (stereo not given)	> 128 µg/mL	1.03
1 µg/mL	CC(C)OC1CCCc2nc(Nc3ccc(Cl)cc3)sc21 (stereo not given)	> 128 µg/mL	0.06
16 µg/mL	COC1CCCc2nc(Nc3ccccc3C(F)(F)F)sc21 (stereo not given)	> 128 µg/mL	0.53
16 µg/mL	CC(=O)c1ccc(Nc2nc3c(s2)C(O)CCC3)cc1 (stereo not given)	> 128 µg/mL	0.53
16 µg/mL	COC1CCCc2nc(Nc3cccnc3)sc21 (stereo not given)	> 128 µg/mL	0.53
16 µg/mL	COC1CCCc2nc(Nc3ccc(I)cc3)sc21 (stereo not given)	> 128 µg/mL	0.53
16 µg/mL	COC1CCCc2nc(Nc3ccc(C(C)=O)cc3)sc21 (stereo not given)	> 128 µg/mL	0.53
16 µg/mL	COC1CCCc2nc(Nc3ccc(C)cc3)sc21 (stereo not given)	> 128 µg/mL	0.53
32 µg/mL	OC1CCCc2nc(Nc3ccccc3)sc21 (stereo not given)	> 128 µg/mL	1.03
16 µg/mL	COC1CCCc2nc(Nc3cccc(Br)c3)sc21 (stereo not given)	> 128 µg/mL	0.53
32 µg/mL	OC1CCCc2nc(Nc3ccc(F)cc3)sc21 (stereo not given)	> 128 µg/mL	1.03
1 µg/mL	COC1CCCc2nc(Nc3ccc(Cl)cc3)sc21 (stereo not given)	> 128 µg/mL	0.06
32 µg/mL	COC1CCCc2nc(Nc3ccccc3Cl)sc21 (stereo not given)	> 128 µg/mL	1.03
16 µg/mL	OC1CCCc2nc(Nc3ccc(Cl)cn3)sc21 (stereo not given)	> 128 µg/mL	0.53
16 µg/mL	CCOC1CCCc2nc(Nc3ccc(F)cc3)sc21 (stereo not given)	> 128 µg/mL	0.53
4 µg/mL	CCOC1CCCc2nc(Nc3ccc(C)cc3)sc21 (stereo not given)	> 128 µg/mL	0.16

MIC (Klebsiella pneumoniae [2])	Compound	MIC (Klebsiella pneumoniae [1])	fractional inhibitory concentration index (FICI) (Klebsiella pneumoniae [3])
16 µg/mL	Cc1ccc(Nc2nc3c(s2)C(OC(C)C)CCC3)cc1 (stereo not given)	> 128 µg/mL	0.53
16 µg/mL	COC1CCCc2nc(Nc3ccc([N+](=O)[O-])cc3)sc21 (stereo not given)	> 128 µg/mL	0.53
32 µg/mL	COC1CCCc2nc(Nc3cccc(C)c3)sc21 (stereo not given)	> 128 µg/mL	1.03
16 µg/mL	COC1CCCc2nc(Nc3ccc(C#N)cc3)sc21 (stereo not given)	> 128 µg/mL	0.53
32 µg/mL	CCc1ccc(Nc2nc3c(s2)C(OC)CCC3)cc1 (stereo not given)	> 128 µg/mL	1.03
32 µg/mL	COC1CCCc2nc(Nc3cccc(F)c3)sc21 (stereo not given)	> 128 µg/mL	1.03
32 µg/mL	Cc1ccc(Nc2nc3c(s2)C(O)CCC3)cc1 (stereo not given)	> 128 µg/mL	1.03
32 µg/mL	COC1CCCc2nc(Nc3ccc(O)cc3)sc21 (stereo not given)	> 128 µg/mL	1.03
16 µg/mL	COC1CCCc2nc(Nc3ccc(N(C)C)cc3)sc21 (stereo not given)	> 128 µg/mL	0.53
32 µg/mL	COC1CCCc2nc(Nc3ccc(NC(C)=O)cc3)sc21 (stereo not given)	> 128 µg/mL	1.03
16 µg/mL	OC1CCCc2nc(Nc3ccc4ccccc4c3)sc21 (stereo not given)	> 128 µg/mL	0.53
1 µg/mL	CCOC1CCCc2nc(Nc3ccc(Cl)cc3)sc21 (stereo not given)	> 128 µg/mL	0.06
16 µg/mL	OC1CCCc2nc(Nc3ccc(C(F)(F)F)cc3)sc21 (stereo not given)	> 128 µg/mL	0.53
8 µg/mL	COC1CCCc2nc(Nc3cccc(Cl)c3)sc21 (stereo not given)	> 128 µg/mL	0.28
32 µg/mL	COC1CCCc2nc(Nc3ccccc3)sc21 (stereo not given)	> 128 µg/mL	1.03
16 µg/mL	O=C(OC1CCCc2nc(Nc3ccccc3)sc21)n1ccnc1 (stereo not given)	> 128 µg/mL	0.53
32 µg/mL	COC1CCCc2nc(Nc3ccc4ccccc4c3)sc21 (stereo not given)	> 128 µg/mL	1.03

— ChEMBL document CHEMBL4257451, “Synergism of fused bicyclic 2-aminothiazolyl compounds with polymyxin B against Klebsiella pneumoniae” (Medchemcomm, 2017)
